Measured values: patent US7799809B2, “Carboxamide compounds and their use as calpain inhibitors” (Abbott GmbH & Co. KG, priority 2006, dated 2010)

Tests used:
Type in all cases: biochemical
cathepsin L = biological target: T1, cathepsin L (Homo sapiens, UniProt P07711); test: Cathepsin L enzyme inhibition in vitro (kinetic fluorescence assay); details: cathepsin L isolated from human liver vs calpain I
T1 construct: cathepsin L—isolated from human liver (Calbiochem #219402); purchased Calbiochem 219402; host or cells: human liver (tissue-derived)
Summary of the method: (§1)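 Inhibition is measured at room temperature in cysteine-containing MES buffer, pH 6.0, by continuous fluorescence at 460 nm. Cathepsin S (0.5 nM) uses 20 μM Z-Val-Val-Arg-AMC; L (1 nM) and B (0.25 nM) use Z-Phe-Arg-AMC at 2 and 100 μM respectively.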

cathepsin S = biological target: T2, cathepsin S (Homo sapiens, UniProt P25774); test: Cathepsin S enzyme inhibition in vitro (kinetic fluorescence assay); details: recombinant human cathepsin S vs calpain I
T2 construct: purchased Calbiochem 219343; host or cells: E. coli
Summary of the method: as §1

cathepsin B = biological target: T3, cathepsin B (Homo sapiens, UniProt P07858); test: Cathepsin B enzyme inhibition in vitro (kinetic fluorescence assay); details: cathepsin B isolated from human liver vs calpain I
T3 construct: cathepsin B—isolated from human liver (Calbiochem #219362); purchased Calbiochem 219362; host or cells: human liver (tissue-derived)
Summary of the method: as §1

cathepsin K = biological target: T4, cathepsin K (Homo sapiens, UniProt P43235); test: Cathepsin K enzyme inhibition in vitro (kinetic fluorescence assay); details: cathepsin K activated from recombinant human procathepsin K vs calpain I
T4 construct: purchased Calbiochem 342001; host or cells: E. coli
T4 sequence (P43235 115-329): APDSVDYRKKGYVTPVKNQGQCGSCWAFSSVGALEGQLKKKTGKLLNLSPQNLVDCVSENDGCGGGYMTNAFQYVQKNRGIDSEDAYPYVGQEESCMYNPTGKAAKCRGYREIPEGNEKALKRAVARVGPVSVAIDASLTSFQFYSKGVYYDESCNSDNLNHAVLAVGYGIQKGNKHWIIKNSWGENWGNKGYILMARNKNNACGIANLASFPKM

T2 sequence (P25774 115-331): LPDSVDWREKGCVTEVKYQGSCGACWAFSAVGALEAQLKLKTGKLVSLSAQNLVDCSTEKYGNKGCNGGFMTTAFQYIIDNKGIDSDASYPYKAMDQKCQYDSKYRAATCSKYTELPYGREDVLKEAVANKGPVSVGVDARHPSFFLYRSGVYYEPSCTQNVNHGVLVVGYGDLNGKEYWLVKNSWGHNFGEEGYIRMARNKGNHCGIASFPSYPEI
T1 sequence (P07711 114-333): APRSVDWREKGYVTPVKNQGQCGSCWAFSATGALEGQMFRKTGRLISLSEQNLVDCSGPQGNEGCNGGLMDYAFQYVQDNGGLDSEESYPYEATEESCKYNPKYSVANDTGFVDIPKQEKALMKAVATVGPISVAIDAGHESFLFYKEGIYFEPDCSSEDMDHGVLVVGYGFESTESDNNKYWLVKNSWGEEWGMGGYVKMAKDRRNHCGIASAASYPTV

Row | SMILES | Sel cat. L: Ki(cathepsin L)/Ki(calpain) ratio (cathepsin L) | Sel cat. S: Ki(cathepsin S)/Ki(calpain) ratio (cathepsin S) | Sel cat. B: Ki(cathepsin B)/Ki(calpain) ratio (cathepsin B) | Sel cat. K: Ki(cathepsin K)/Ki(calpain) ratio (cathepsin K)
1 | NC(=O)C(=O)C(Cc1ccccc1)NC(=O)c1cccnc1-n1ccc(-c2cccc3c2OC(F)(F)O3)n1 (stereo not shown) [Example 119, N-[3-Amino-2,3-dioxo-1-(phenylmethyl)propyl]-2-[3-(2,2-difluoro-1,3-benzodioxol-4-yl)-1H-pyrazol-1-yl]pyridine-3-carboxamide] | ++ (++ means a Ki(cathepsin L)/Ki(calpain) ratio of ≧50) | ++ (++ means a Ki(cathepsin S)/Ki(calpain) ratio of ≧100) | ++ (++ means a Ki(cathepsin B)/Ki(calpain) ratio of ≧30) | ++ (++ means a Ki(cathepsin K)/Ki(calpain) ratio of ≧30)
2 | NC(=O)C(=O)C(Cc1ccccc1)NC(=O)c1cccnc1-n1ccc(-c2c(F)ccc(Cl)c2Cl)n1 (stereo not shown) [Example 120, N-[3-Amino-2,3-dioxo-1-(phenylmethyl)propyl]-2-[3-(2,3-dichloro-6-fluorophenyl)-1H-pyrazol-1-yl]pyridine-3-carboxamide] | + (+ means 30≦Ki(cathepsin L)/Ki(calpain)<50) | ++ (++ means a Ki(cathepsin S)/Ki(calpain) ratio of ≧100) | ++ (++ means a Ki(cathepsin B)/Ki(calpain) ratio of ≧30) | ++ (++ means a Ki(cathepsin K)/Ki(calpain) ratio of ≧30)
3 | COc1c(C)cc(C)cc1-c1ccn(-c2ncccc2C(=O)NC(Cc2ccccc2)C(=O)C(N)=O)n1 (stereo not shown) [Example 121, N-[3-Amino-2,3-dioxo-1-(phenylmethyl)propyl]-2-{3-[3,5-dimethyl-2-(methyloxy)phenyl]-1H-pyrazol-1-yl}pyridine-3-carboxamide] | ++ (++ means a Ki(cathepsin L)/Ki(calpain) ratio of ≧50) | ++ (++ means a Ki(cathepsin S)/Ki(calpain) ratio of ≧100) | ++ (++ means a Ki(cathepsin B)/Ki(calpain) ratio of ≧30) | ++ (++ means a Ki(cathepsin K)/Ki(calpain) ratio of ≧30)
4 | NC(=O)C(=O)C(Cc1ccc(F)cc1)NC(=O)c1cccnc1-n1ccc(-c2ccccc2)n1 (stereo not shown) [Example 123, N-{3-Amino-1-[(4-fluorophenyl)methyl]-2,3-dioxopropyl}-2-(3-phenyl-1H-pyrazol-1-yl)pyridine-3-carboxamide] | ++ (++ means a Ki(cathepsin L)/Ki(calpain) ratio of ≧50) | ++ (++ means a Ki(cathepsin S)/Ki(calpain) ratio of ≧100) | ++ (++ means a Ki(cathepsin B)/Ki(calpain) ratio of ≧30) | ++ (++ means a Ki(cathepsin K)/Ki(calpain) ratio of ≧30)
5 | NC(=O)C(=O)C(Cc1ccccc1)NC(=O)c1cccnc1-n1ccc(-c2ccccc2OC(F)(F)F)n1 (stereo not shown) [Example 124, N-[3-Amino-2,3-dioxo-1-(phenylmethyl)propyl]-2-(3-{2-[(trifluoromethyl)oxy]phenyl}-1H-pyrazol-1-yl)pyridine-3-carboxamide] | ++ (++ means a Ki(cathepsin L)/Ki(calpain) ratio of ≧50) | ++ (++ means a Ki(cathepsin S)/Ki(calpain) ratio of ≧100) | ++ (++ means a Ki(cathepsin B)/Ki(calpain) ratio of ≧30) | ++ (++ means a Ki(cathepsin K)/Ki(calpain) ratio of ≧30)
6 | COc1cc(F)ccc1-c1ccn(-c2ncccc2C(=O)NC(Cc2ccccc2)C(=O)C(N)=O)n1 (stereo not shown) [Example 125, N-[3-Amino-2,3-dioxo-1-(phenylmethyl)propyl]-2-{3-[4-fluoro-2-(methyloxy)phenyl]-1H-pyrazol-1-yl}pyridine-3-carboxamide] | ++ (++ means a Ki(cathepsin L)/Ki(calpain) ratio of ≧50) | ++ (++ means a Ki(cathepsin S)/Ki(calpain) ratio of ≧100) | ++ (++ means a Ki(cathepsin B)/Ki(calpain) ratio of ≧30) | ++ (++ means a Ki(cathepsin K)/Ki(calpain) ratio of ≧30)
7 | NC(=O)C(=O)C(Cc1ccc(OCc2ccccc2)cc1)NC(=O)c1cccnc1-n1ccc(-c2ccccc2)n1 (stereo not shown) [Example 127, N-[3-Amino-2,3-dioxo-1-({4-[(phenylmethyl)oxy]phenyl}methyl)propyl]-2-(3-phenyl-1H-pyrazol-1-yl)pyridine-3-carboxamide] | ++ (++ means a Ki(cathepsin L)/Ki(calpain) ratio of ≧50) | ++ (++ means a Ki(cathepsin S)/Ki(calpain) ratio of ≧100) | ++ (++ means a Ki(cathepsin B)/Ki(calpain) ratio of ≧30) | ++ (++ means a Ki(cathepsin K)/Ki(calpain) ratio of ≧30)
8 | COc1ccc(F)cc1-c1ccn(-c2ncccc2C(=O)NC(Cc2ccccc2)C(=O)C(N)=O)n1 (stereo not shown) [Example 130, N-[3-Amino-2,3-dioxo-1-(phenylmethyl)propyl]-2-{3-[5-fluoro-2-(methyloxy)phenyl]-1H-pyrazol-1-yl}pyridine-3-carboxamide] | ++ (++ means a Ki(cathepsin L)/Ki(calpain) ratio of ≧50) | ++ (++ means a Ki(cathepsin S)/Ki(calpain) ratio of ≧100) | ++ (++ means a Ki(cathepsin B)/Ki(calpain) ratio of ≧30) | ++ (++ means a Ki(cathepsin K)/Ki(calpain) ratio of ≧30)
9 | COc1ccc(Cl)cc1-c1ccn(-c2ncccc2C(=O)NC(Cc2ccccc2)C(=O)C(N)=O)n1 (stereo not shown) [Example 131, N-[3-Amino-2,3-dioxo-1-(phenylmethyl)propyl]-2-{3-[5-chloro-2-(methyloxy)phenyl]-1H-pyrazol-1-yl}pyridine-3-carboxamide] | ++ (++ means a Ki(cathepsin L)/Ki(calpain) ratio of ≧50) | ++ (++ means a Ki(cathepsin S)/Ki(calpain) ratio of ≧100) | ++ (++ means a Ki(cathepsin B)/Ki(calpain) ratio of ≧30) | ++ (++ means a Ki(cathepsin K)/Ki(calpain) ratio of ≧30)
10 | NC(=O)C(=O)C(Cc1ccc(OC(F)(F)F)cc1)NC(=O)c1cccnc1-n1ccc(-c2ccc(F)cc2)n1 (stereo not shown) [Example 132, N-[3-Amino-2,3-dioxo-1-({4-[(trifluoromethyl)oxy]phenyl}methyl)propyl]-2-[3-(4-fluorophenyl)-1H-pyrazol-1-yl]pyridine-3-carboxamide] | ++ (++ means a Ki(cathepsin L)/Ki(calpain) ratio of ≧50) | ++ (++ means a Ki(cathepsin S)/Ki(calpain) ratio of ≧100) | + (+ means 10≦Ki(cathepsin B)/Ki(calpain)<30) | ++ (++ means a Ki(cathepsin K)/Ki(calpain) ratio of ≧30)
11 | NC(=O)C(=O)C(Cc1ccc(OC(F)(F)F)cc1)NC(=O)c1cccnc1-n1ccc(-c2ccccc2)n1 (stereo not shown) [Example 133, N-[3-Amino-2,3-dioxo-1-({4-[(trifluoromethyl)oxy]phenyl}methyl)propyl]-2-(3-phenyl-1H-pyrazol-1-yl)pyridine-3-carboxamide] | ++ (++ means a Ki(cathepsin L)/Ki(calpain) ratio of ≧50) | ++ (++ means a Ki(cathepsin S)/Ki(calpain) ratio of ≧100) | ++ (++ means a Ki(cathepsin B)/Ki(calpain) ratio of ≧30) | ++ (++ means a Ki(cathepsin K)/Ki(calpain) ratio of ≧30)
12 | NC(=O)C(=O)C(Cc1ccc(OC(F)(F)F)cc1)NC(=O)c1cccnc1-n1ccc(-c2cccc(C(F)(F)F)c2)n1 (stereo not shown) [Example 134, N-[3-Amino-2,3-dioxo-1-({4-[(trifluoromethyl)oxy]phenyl}methyl)propyl]-2-{3-[3-(trifluoromethyl)phenyl]-1H-pyrazol-1-yl}pyridine-3-carboxamide] | + (+ means 30≦Ki(cathepsin L)/Ki(calpain)<50) | + (+ means 50≦Ki(cathepsin S)/Ki(calpain)<100) | ++ (++ means a Ki(cathepsin B)/Ki(calpain) ratio of ≧30) | ++ (++ means a Ki(cathepsin K)/Ki(calpain) ratio of ≧30)
13 | COc1ccc(CC(NC(=O)c2cccnc2-n2ccc(-c3cccc4ccccc34)n2)C(=O)C(N)=O)cc1 (stereo not shown) [Example 135, N-(3-Amino-1-{[4-(methyloxy)phenyl]methyl}-2,3-dioxopropyl)-2-(3-naphthalen-1-yl-1H-pyrazol-1-yl)pyridine-3-carboxamide] | ++ (++ means a Ki(cathepsin L)/Ki(calpain) ratio of ≧50) | ++ (++ means a Ki(cathepsin S)/Ki(calpain) ratio of ≧100) | ++ (++ means a Ki(cathepsin B)/Ki(calpain) ratio of ≧30) | ++ (++ means a Ki(cathepsin K)/Ki(calpain) ratio of ≧30)
